According to patent US5444073A, “Method for treating memory impairment” (H. Lundbeck A/S, priority 1991, dated 1995):

Test: Catalepsy test (rat on a vertical wire mesh, s.c.)
Conditions: Cataleptic Activity, maximum within the first 6 hours
Procedure: Test compound is given s.c. in different doses. The rat (170-240 g) is placed on a vertical wire mesh (mesh-diameter 12 mm). The rat is considered cataleptic if it remains immobile for more than 15 sec. The maximum number of rats showing catalepsy within the first 6 hours is recorded for each dose group. The results are recorded in fractions and an ED50 value is calculated by means of log-probit analysis.

Row | Compound | ED50(s.c.) [µmol/kg]
1 | CN1CCN(CCN2CCC(c3cn(-c4ccc(F)cc4)c4ccc(Cl)cc34)CC2)C1=O.O=C(O)/C=C/C(=O)O [Comp. No 3, 5-chloro-1-(4-fluorophenyl)-3-[1-[2-(3-methyl-2-imidazolidinon-1-yl)ethyl]4-piperidyl]-1H-indole, fumarate] | 31
2 | O=C(O)/C=C/C(=O)O.O=C1CCCN1CCN1CCC(c2cn(-c3ccc(F)cc3)c3ccc(Cl)cc23)CC1 [Comp. No 4, 5-chloro-1-(4-fluorophenyl)-3-[1-[2-(2-pyrrolidinon-1-yl)ethyl]-4-piperidyl]-1H-indole, fumarate] | 23
3 | O=C1NCCN1CCN1CC=C(c2cn(-c3ccc(F)cc3)c3ccc(C(F)(F)F)cc23)CC1 [Comp. A, 1-(4-Fluorophenyl)-3-[1-[2-(2-imidazolidinon-1-yl)ethyl]-1,2,3,6-tetrahydropyridin-4-yl]-5-trifluoromethyl-1H-indole] | 0.49
4 | 5-Chloro-1-(4-fluorophenyl)-3-[1-[2-(2-imidazolidinon-1-yl)ethyl]-1,2,3,6-tetrahydropyridin-4-yl]-5-trifluoromethyl-1H-indole [Comp. B] | 2.2
5 | 5-Chloro-1-(4-fluorophenyl)-3-[4-[2-(2-imidazolidinon-1-yl)ethyl]-12,3,6-tetrahydropyridin-4-yl]-5-trifluoromethyl-1H-indole [Comp. C] | 4.5
